This is an account of results in US20260193293A1, “PEPTIDES CAPABLE OF INHIBITING PROTEIN-PROTEIN INTERACTIONS AT GABAB1A SUBUNIT AND USES THEREOF” (UNIVERSITY OF COPENHAGEN, priority 2022, published 2026).

Read-outs that look alike come from different tables or passages of the source. Non-standard residues stand in square brackets, D forms with d. Residues, ends and D or L forms follow the SMILES beside them. 2Nal = N[C@@H](Cc1ccc2ccccc2c1)C(=O)O

One data set has as its target SD1/2. Kind of data set: Solution array of crude APPWT variants, six-point FP inhibition curve. It counts as binding. The following applies: crude peptides of the solution array. The method, then:
Parallel synthesis in 96 format peptide synthesis was done using Intavis multipep RSi instrument. Fmoc-PAL resins was used (10 mg per well). Fmoc-amino acids (Fmoc-AA) were dissolved in dimethylformamide (DMF) containing 0.3 M OxymaPure. Throughout the synthesis Fmoc-AA were preactivated with diisopropylcarbodiimide (DIC) for 2 min before adding to the resin. Three couplings using 100 μL Fmoc-AA and 10 μL DIC (3 M in DMF) pr well were employed with coupling times of 5, 15 and 60 min. Removal of Fmoc was performed by washing twice with 120 μl per well of 25% piperidine in DMF for 2 and 8 min. Washing steps after deprotection with piperidine and after coupling steps included washing with DMF (150 μL per well) five times. After synthesis the resins were dried with ethanol and trifluoroacetic acid (TFA) was added using 92% TFA containing 4% triisopropylsilane (TIPS), 1% thioanisol, and 3% H2O for 2 hours. This was done by adding 100 μL per well of the TFA cleavage cocktail over a period of 30 min adding up to a total volume of 1 mL to each well. TFA was then reduced in volume to approximately 100-150 μL by N2 flow and peptides were precipitated by the addition 800 μL of diethylether to each well. The peptides were transferred to Waters solvinert plates and washed thoroughly five times with diethylether 500 μL per well. After washing, the peptides were dried and then dissolved in 80% DMSO. Characterization was performed by UPLC-MS on a setup consisting of a Waters Acquity UPLC system connected to an LCT Premier XE mass spectrometer from Micromass using solvent A 0.1% TFA in H2O and solvent B 0.1% TFA in CH3CN.
We synthesized additional positional scanning array (termed solution array) of APPWT using the conventional on-resin SPPS strategy in 96-well plates. This solution array contained 268 peptides (including two wild type peptides). […] Taking advantage of the high purity of this peptide array, we generated six-point FP inhibition curve of each peptide and the obtained dose response curves enabled us to calculate the binding affinity (Ki) of each peptide variant (data not shown).

The target of data set [1] is Sushi domains (SD1/2) protein. Kind of data set: Fluorescence polarization (FP) competition assay with AJAP-1probe, calculated Ki. It counts as binding. The method, boiled down:
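Competition against 25 nM TAMRA-labelled peptide probe binding SD1/2, in PBS pH 7.4 with 1% BSA at rt, read at 530/580 nm. IC50 from sigmoidal dose-response fits, at least triplicate; Ki calculated from IC50 using probe Kd from saturation binding.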

For data set [2] the following is noted: human, plasma.
Protocol: (§3) For time-course assay, 360 μL human plasma was pre-warmed up at 37° C. for 15 min and then spiked with 40 μL of tested peptides (1 mM in 1×PBS). […] Subsequently, 100 μL acetonitrile was added into and then samples were incubated overnight at −20° C. After that, all samples were centrifuged at 13,400 rpm for 10 min and the supernatant was filtered and then analyzed by LC-MS and UPLC (Waters). The area under the curve (AUC) was determined and normalized to the value of the first time point. The half-life (T1/2) was obtained by fitting the data to the one-phase decay equation in GraphPad Prism 9 and expressed as the mean of three individual experiments. For end-point assay, 108 μL human plasma was pre-warmed up at 37° C. for 15 min and then spiked with 12 μL of tested peptides (1 mM in 1×PBS).
In a further data set the target is T1, GB1a subunit (Mus musculus, UniProt Q9WV18).
T1 construct: using the homogenized membrane fraction of wild type mouse brains; from tissue; host or cells: adult mouse brain, solubilized membrane-enriched fraction
T1 sequence (Q9WV18 20-960): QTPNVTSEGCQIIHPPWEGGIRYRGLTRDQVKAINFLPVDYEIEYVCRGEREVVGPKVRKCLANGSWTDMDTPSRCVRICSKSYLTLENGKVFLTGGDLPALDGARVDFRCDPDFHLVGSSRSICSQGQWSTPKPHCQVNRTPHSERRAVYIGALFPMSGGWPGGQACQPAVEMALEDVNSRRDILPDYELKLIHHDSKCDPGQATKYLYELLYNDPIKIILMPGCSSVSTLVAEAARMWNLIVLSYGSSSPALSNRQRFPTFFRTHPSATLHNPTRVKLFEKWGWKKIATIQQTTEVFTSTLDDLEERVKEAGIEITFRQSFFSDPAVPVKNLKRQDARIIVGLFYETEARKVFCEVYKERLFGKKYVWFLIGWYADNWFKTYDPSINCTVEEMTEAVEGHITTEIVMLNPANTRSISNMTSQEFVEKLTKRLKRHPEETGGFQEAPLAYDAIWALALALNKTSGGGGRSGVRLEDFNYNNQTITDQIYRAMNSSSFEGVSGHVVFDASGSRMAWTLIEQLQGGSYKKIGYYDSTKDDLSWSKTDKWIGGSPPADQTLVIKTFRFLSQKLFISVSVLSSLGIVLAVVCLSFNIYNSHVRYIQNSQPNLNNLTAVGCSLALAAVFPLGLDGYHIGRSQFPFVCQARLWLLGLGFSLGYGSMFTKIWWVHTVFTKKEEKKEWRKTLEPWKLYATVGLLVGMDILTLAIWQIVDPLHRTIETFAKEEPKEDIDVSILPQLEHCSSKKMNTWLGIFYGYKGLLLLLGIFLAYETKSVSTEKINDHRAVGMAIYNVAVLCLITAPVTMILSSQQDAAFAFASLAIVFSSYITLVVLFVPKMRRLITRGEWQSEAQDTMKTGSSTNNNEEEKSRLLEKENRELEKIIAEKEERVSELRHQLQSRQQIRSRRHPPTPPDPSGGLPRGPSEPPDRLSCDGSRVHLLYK
Kind of data set: Pull-down from mouse brain membrane fraction, immunoblotting. In kind it is binding. Particulars: immobilized peptides, whole-brain lysate. As for the experimental part: Covalent immobilization of peptides. Peptides AJAP-1WT, 17 and 20 comprising a C-terminal Cys and a PEG2 linker, were loaded covalently to Dynabeads M-270 Epoxy beads (Thermo Fischer Scientific) according to the protocol of the manufacturer. 25 μL DMSO stocks of peptides (10 mM) were diluted 15 times into 350 μL coupling buffer (100 mM PBS buffer containing 2 M […] and 10 mM TCEP, PH=7.4) and agitated overnight at 37° C. with Dynabeads M-270 Epoxy beads (5 mg, ~3.3×10^8 beads), which had been washed and equilibrated with coupling buffer before. After removing excess peptides, the Dynabeads M-270 Epoxy beads were washed three times and equilibrated with 100 mM PBS buffer, pH=7.4 and stored at 4° C.
Preparation of whole-brain lysates. Dissected adult mouse brains were placed in ice-cold homogenization buffer (320 mM sucrose, 4 mM HEPES, PH 7.5, 1 mM EDTA, 1 mM EGTA, supplemented with complete EDTA-free protease inhibitor mixture (Roche), 1 mL per 100 mg of brain) and homogenized with a glass-Teflon homogenizer (40 passes) on ice. The homogenized material was cleared by centrifugation at 500×g (4° C., 15 min). […]

In data set [3] the target is T2, GB1a/2 receptors in presence of AJAP-1 in trans (Homo sapiens, UniProt Q9UBS5).
T2 construct: Flag; expressed in transfected cells; host or cells: HEK293T cells stably expressing chimeric Gαq/i
T2 sequence (Q9UBS5 15-961 limits assumed): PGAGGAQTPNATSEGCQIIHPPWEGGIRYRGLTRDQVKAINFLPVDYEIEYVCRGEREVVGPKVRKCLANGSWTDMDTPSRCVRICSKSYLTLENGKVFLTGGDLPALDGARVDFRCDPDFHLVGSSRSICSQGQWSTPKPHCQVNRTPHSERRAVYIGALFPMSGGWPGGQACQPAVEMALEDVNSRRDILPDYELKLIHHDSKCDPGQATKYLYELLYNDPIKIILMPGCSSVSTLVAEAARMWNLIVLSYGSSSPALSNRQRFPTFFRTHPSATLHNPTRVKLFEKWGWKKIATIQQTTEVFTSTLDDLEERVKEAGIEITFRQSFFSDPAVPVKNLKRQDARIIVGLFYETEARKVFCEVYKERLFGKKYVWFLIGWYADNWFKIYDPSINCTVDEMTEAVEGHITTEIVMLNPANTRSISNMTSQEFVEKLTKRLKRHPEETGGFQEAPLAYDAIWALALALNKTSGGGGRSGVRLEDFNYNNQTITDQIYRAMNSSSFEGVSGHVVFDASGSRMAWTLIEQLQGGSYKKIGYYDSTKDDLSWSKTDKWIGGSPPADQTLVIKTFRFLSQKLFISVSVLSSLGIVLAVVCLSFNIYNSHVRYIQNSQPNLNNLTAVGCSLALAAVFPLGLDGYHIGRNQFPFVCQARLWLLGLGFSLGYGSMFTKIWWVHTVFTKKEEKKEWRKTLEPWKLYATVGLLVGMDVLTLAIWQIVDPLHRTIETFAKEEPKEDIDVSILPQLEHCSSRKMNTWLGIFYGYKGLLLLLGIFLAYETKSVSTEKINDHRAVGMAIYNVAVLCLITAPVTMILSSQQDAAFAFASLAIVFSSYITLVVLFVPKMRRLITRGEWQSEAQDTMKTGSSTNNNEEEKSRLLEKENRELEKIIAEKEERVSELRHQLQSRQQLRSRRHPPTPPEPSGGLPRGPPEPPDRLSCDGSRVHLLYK
T2 sequence (O75899 42-941 partner): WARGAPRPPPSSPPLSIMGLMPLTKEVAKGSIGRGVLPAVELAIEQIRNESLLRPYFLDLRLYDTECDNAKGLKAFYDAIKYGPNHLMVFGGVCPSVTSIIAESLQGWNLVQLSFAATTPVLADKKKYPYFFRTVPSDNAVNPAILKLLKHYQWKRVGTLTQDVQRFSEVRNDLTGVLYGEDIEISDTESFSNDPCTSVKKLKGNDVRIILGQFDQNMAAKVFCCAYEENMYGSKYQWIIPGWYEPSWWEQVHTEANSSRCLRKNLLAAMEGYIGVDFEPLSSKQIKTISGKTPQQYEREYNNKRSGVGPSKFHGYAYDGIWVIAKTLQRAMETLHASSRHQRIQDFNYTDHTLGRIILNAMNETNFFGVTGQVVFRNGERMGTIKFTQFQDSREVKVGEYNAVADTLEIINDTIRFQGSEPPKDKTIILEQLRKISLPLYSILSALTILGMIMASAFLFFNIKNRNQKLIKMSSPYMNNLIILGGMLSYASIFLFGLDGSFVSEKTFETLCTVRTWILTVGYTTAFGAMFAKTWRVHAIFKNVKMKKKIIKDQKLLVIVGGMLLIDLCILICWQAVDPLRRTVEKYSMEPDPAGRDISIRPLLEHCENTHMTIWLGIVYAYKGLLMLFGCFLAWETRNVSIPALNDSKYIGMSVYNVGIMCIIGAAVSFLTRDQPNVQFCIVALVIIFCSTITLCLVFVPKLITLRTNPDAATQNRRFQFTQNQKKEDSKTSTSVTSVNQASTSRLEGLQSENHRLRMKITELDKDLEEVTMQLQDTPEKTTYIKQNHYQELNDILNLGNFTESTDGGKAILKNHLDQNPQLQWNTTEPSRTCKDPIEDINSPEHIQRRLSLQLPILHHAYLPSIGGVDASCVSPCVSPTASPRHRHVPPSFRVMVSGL
Kind of data set: SRE-Luciferase accumulation assay. It counts as cell-based. The following applies: 10 μM peptide; for basal activity of GB1a/2Rs: in presence of AJAP-1 in trans. The source says:
(§1) To elucidate whether our developed peptides AJAP-1WT, 16 and 20 could interact and disrupt the trans-interaction between AJAP-1 and GB1a/2Rs, we used an established accumulation assay based on coupling GB1a/2Rs to phospholipase C (PLC) via chimeric Gαqi (Conklin et al. 1993). PLC activity is then monitored with a serum responsive element-luciferase (SRE-Luciferase) reporter amplifying the GB1a/2Rs response (Yoo et al. 2017) (FIG. 5).
(§2) HEK293T cells stably expressing Gαq/i were transiently transfected with Flag-GB1a, Flag-GB2 and SRE-FLuc with or without AJAP-1. In order to ensure GB1a/2 binding of AJAP-1 in trans, a pool of HEK293T-Gαq/i cells expressing AJAP-1 was mixed with HEK293-Gαq/i cells expressing Flag-GB1a, Flag-GB2 and SRE-FLuc. Transfected cells were distributed into 96-well microplates (Greiner Bio-One) at a density of 80,000 cells/well. After 24 h, the culture medium was replaced with Opti-MEM™-GlutaMAX™ Peptides were incubated in Opti-MEM™-GlutaMAX™ for 10 minutes. In presence of peptide, GB1a/2 receptors were activated with various concentrations of GABA for 6 h. FLuc activity in lysed cells was measured using the Luciferase® Assay Kit (Promega) and a Spark® microplate reader. Luminescence signals were adjusted by subtracting the luminescence obtained when expressing SRE-FLuc fusion proteins alone.

A further data set has as its target T3, GB1a/2 receptors (Homo sapiens, UniProt Q9UBS5).
T3 construct: Flag; expressed in transfected cells; host or cells: HEK293T cells stably expressing chimeric Gαq/i
Kind of data set: SRE-Luciferase accumulation assay. In kind it is cell-based. The following applies: in the absence of AJAP-1.
Text: as §1, §2

A short description of data set [4]: In vitro plasma stability. The following applies: human, plasma.
Protocol: as §3
The mark [5] stands for this setting: purified peptides, read-out: Ki.
[6] abbreviates: Table 1, affinity maturation, mean ± SEM, n ≥ 3, read-out: Ki.

T3 sequence (Q9UBS5 15-961 limits assumed): as the sequence (Q9UBS5 15-961 limits assumed) above
T3 sequence (O75899 42-941 partner): as the sequence (O75899 42-941 partner) above

The term Ki denotes a dissociation constant, usually derived from enzyme kinetics or from competition with a known ligand. For `CC(=O)N[C@@H](CCC(=O)O)C(=O)N[C@@H](CC(=O)O)C(=O)N[C@@H](CC(=O)O)C(=O)N[C@@H](CO)C(=O)N[C@@H](Cc1c[nH]c2ccccc12)C(=O)N[C@H](C(=O)N[C@@H](Cc1c[nH]c2ccccc12)C(=O)N[C@@H](Cc1c[nH]c2ccccc12)C(=O)NCC(=O)NCC(=O)N[C@@H](C)C(=O)N[C@@H](CC(=O)O)C(=O)N[C@H](C(=O)N[C@@H](CC(=O)O)C(N)=O)[C@@H](C)O)C(C)C` (Ac-EDDSWVWWGGADTD-NH2), the Ki on SD1/2 was 78 nM; in data set [1] (setting [5]), 100 nM.

As usually defined, the half-life is the time needed for the level to fall by half in the phase considered. In turn, `CC[C@H](C)[C@H](NC(=O)[C@H](Cc1ccccc1)NC(=O)[C@H](CCC(=O)O)NC(=O)[C@@H](NC(=O)[C@H](CCC(=O)O)NC(C)=O)[C@@H](C)O)C(=O)N[C@@H](C)C(=O)N[C@@H](Cc1c[nH]c2ccccc12)C(=O)NCC(=O)N1CCC[C@H]1C(=O)N[C@H](C(=O)NCC(=O)N[C@@H](CC(=O)O)C(=O)N[C@@H](CCC(=O)O)C(=O)N[C@@H](CC(=O)O)C(N)=O)[C@@H](C)O` [AJAP-1WT, Ac-ETEFIAWGPTGDED-NH2] (Ac-ETEFIAWGPTGDED-NH2) returned a half-life in data set [2] of more than 48 h. The “pull-down of native GB1a” value at GB1a subunit is “ability to bind and enrich full-length GB1a subunit”. Besides, the Ki in data set [1] (setting [5]) was 31 ± 1 nM. In data set [3], the “basal activity of GB1a/2Rs” value is reported as “elevated basal activity”. For the same compound, the “Emax values of GABA-activated GB1a/2Rs” value on GB1a/2 receptors is recorded as “did not affect the Emax values”.

For the compound `CC(=O)N[C@@H](CCC(=O)O)C(=O)N[C@@H](CC(=O)O)C(=O)N[C@@H](CC(=O)O)C(=O)N[C@@H](CO)C(=O)N[C@@H](CC(=O)O)C(=O)N[C@H](C(=O)N[C@@H](Cc1c[nH]c2ccccc12)C(=O)N[C@@H](Cc1c[nH]c2ccccc12)C(=O)NCC(=O)NCC(=O)N[C@@H](C)C(=O)N[C@@H](CC(=O)O)C(=O)N[C@H](C(=O)N[C@@H](CC(=O)O)C(N)=O)[C@@H](C)O)C(C)C` [APPWT] (Ac-EDDSDVWWGGADTD-NH2), the Ki is 635 nM on SD1/2, 557 ± 9 nM in data set [1] (setting [6]) and 557 ± 9 nM in data set [1] (setting [5]). Moreover, the half-life in data set [4] was more than 48 h.

`CC[C@H](C)[C@H](NC(=O)[C@H](Cc1c[nH]c2ccccc12)NC(=O)[C@H](CC(=O)O)NC(=O)[C@H](CC(=O)O)NC(=O)[C@H](CC(=O)O)NC(=O)[C@H](CCC(=O)O)NC(C)=O)C(=O)N[C@@H](CC(=O)O)C(=O)N[C@@H](Cc1c[nH]c2ccccc12)C(=O)N[C@@H](Cc1ccc(O)cc1)C(=O)N[C@@H](CC(=O)O)C(=O)N[C@@H](CO)C(=O)N[C@@H](CC(=O)O)C(=O)N[C@@H](CC(=O)O)C(=O)N[C@@H](CC(=O)O)C(N)=O` [Peptide 16] (Ac-EDDDWIDWYDSDDD-NH2) registered a half-life in data set [2] of more than 48 h. Moreover, the Ki is 3.2 ± 0.2 nM in data set [1] (CPP tagged peptides overview, SD1/2 binding affinity, mean ± SEM, n ≥ 3, read-out: Ki); 3.2 ± 0.2 nM in data set [1] (setting [6]); 3.2 ± 0.2 nM in data set [1] (Table 13, peptides for affinity maturation, read-out: Ki (nM) mean ± SEM). In addition, the “reduction of negative allosteric modulation effects of AJAP-1 at GB1a/2Rs in trans” value in data set [3] is reported as “to a greater extent than AJAP-1WT peptide”. Also, the “basal activity of GB1a/2Rs” value in data set [3] is “elevated basal activity”. Moreover, at GB1a/2 receptors, the “Emax values of GABA-activated GB1a/2Rs” value is reported as “did not affect the Emax values”.

For `CC[C@H](C)[C@H](NC(=O)[C@H](CC(=O)O)NC(=O)[C@H](CC(=O)O)NC(=O)[C@H](Cc1ccc(O)cc1)NC(=O)[C@H](CC(=O)O)NC(=O)[C@H](CC(=O)O)NC(=O)[C@H](CO)NC(=O)[C@H](CC(=O)O)NC(=O)[C@H](CCC(=O)O)NC(=O)[C@H](Cc1ccc2ccccc2c1)NC(C)=O)C(=O)N[C@@H](CC(=O)O)C(=O)N[C@@H](CC(=O)O)C(=O)N[C@@H](CC(=O)O)C(=O)N[C@@H](Cc1c[nH]c2ccccc12)C(N)=O` [Scr-20, reference compound] (Ac-[2Nal]EDSDDYDDIDDDW-NH2), the “pull-down of native GB1a” value on GB1a subunit is recorded as “did not interact with the GB1a subunit”. The inhibitory constant (Ki) in data set [1] (Table 16, ncAAs incorporated peptides, read-out: Ki (nM) mean ± SEM) was 31200 ± 989 nM. Also, the “basal activity of GB1a/2Rs” value in data set [3] is on record as “significant decreased basal activity”. For the same compound, at GB1a/2 receptors, the “Emax values of GABA-activated GB1a/2Rs” value is listed as “did not affect the Emax values”.
